Data published in US20250011777A1, “DELIVERY OF ANITSENSE OLIGOMERS BY MIRROR IMAGE PEPTIDES” (SAREPTA THERAPEUTICS, INC., priority 2021, published 2025).

Assays:
[1] = after administration; cited from earlier work
[2] = test system: HeLa 654 cells (EGFP gene interrupted by a mutated intron of ß-globin, IVS2-654); experiment: EGFP 654 assay (corrective splicing by PMO IVS2-654, flow cytometry); type: cell-based; conditions: PMO-CPP conjugates, 22 h, read-out: EC50 in concentration-response EGFP assay
Procedure: Purified constructs were then tested using an activity-based readout in which nuclear delivery results in fluorescence. Briefly, HeLa cells stably transfected with an Enhanced Green Fluorescent Protein (EGFP) gene interrupted by a mutated intron of ß-globin (IVS2-654) produce a non-fluorescent EGFP protein. Successful delivery of PMO IVS2-654 to the nucleus results in corrective splicing and EGFP synthesis.
The amount of PMO delivered to the nucleus is therefore correlated with EGFP fluorescence, quantified by flow cytometry. Activity is reported as mean fluorescence intensity (MFI) relative to PMO alone. This activity assay provides indirect information on how much active PMO is delivered to the nucleus. Relative efficiency of a PMO-CPP could be characterized by comparing activity to internal concentration, as discussed later (FIG. 2). […]
For individual peptide testing, PMO-peptides were dissolved in PBS without Ca2+ or Mg2+ at a concentration of 1 mM (determined by UV) before being diluted in MEM. […] Gates were applied to the data to ensure that cells that were positive for propidium iodide or had forward/side scatter readings that were sufficiently different from the main cell population were excluded. […]
Analysis was conducted using Graphpad Prism 7 and FlowJo. For each sample, the mean fluorescence intensity (MFI) and the number of gated cells was measured. […]

Substance | time within which the majority of the drug is cleared renally [1] | EC50 [2]
Eteplirsen | ≤ 24 h | –
RXRRBRRXRRBR [BPEP] | – | ~3000 nM
